Experiment [1] addresses human orexin 1 receptor (Homo sapiens, UniProt O43613). Description: Human orexin 1 receptor radioligand binding. The following applies: human orexin 1 receptor radioligand binding; averages of 2-20 runs; read-out: hOX1 Ki.
The target in experiment [2] is rat orexin 1 receptor (Rattus norvegicus, UniProt P56718). Description: Rat orexin 1 receptor radioligand binding. The conditions noted are these: rat orexin 1 receptor radioligand binding; averages of 2-20 runs; read-out: rOX1 Ki. An outline of the steps: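 Cell-suspension competition binding used 4 nM final tritiated thiazolyl-pyrrolidinyl-methanone radioligand in PBS, ≤0.1% DMSO, with 10 µM almorexant defining nonspecific binding. Filter-bound radioactivity was counted in triplicate. IC50 came from one-site competition fits and was converted to Ki using the predetermined Kd.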

Experiment [3] has as its target human orexin 2 receptor (Homo sapiens (Human), UniProt O43614). Description: Human orexin 2 receptor radioligand binding ([3H]-EMPA). The conditions noted are these: averages of 2-20 runs, read-out: hOX2 Ki. An outline of the steps: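 Competition binding using homogenized HEK293 cells stably expressing human orexin 2 receptor, [3H]-EMPA at 2 nM final and ≤0.1% DMSO; nonspecific binding set with 10 μM almorexant. Filter-bound radioactivity counted by scintillation; one-site competition IC50 converted to Ki using pre-determined Kd, compounds run in triplicate.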

human orexin 2 receptor, sequence (O43614 whole entry): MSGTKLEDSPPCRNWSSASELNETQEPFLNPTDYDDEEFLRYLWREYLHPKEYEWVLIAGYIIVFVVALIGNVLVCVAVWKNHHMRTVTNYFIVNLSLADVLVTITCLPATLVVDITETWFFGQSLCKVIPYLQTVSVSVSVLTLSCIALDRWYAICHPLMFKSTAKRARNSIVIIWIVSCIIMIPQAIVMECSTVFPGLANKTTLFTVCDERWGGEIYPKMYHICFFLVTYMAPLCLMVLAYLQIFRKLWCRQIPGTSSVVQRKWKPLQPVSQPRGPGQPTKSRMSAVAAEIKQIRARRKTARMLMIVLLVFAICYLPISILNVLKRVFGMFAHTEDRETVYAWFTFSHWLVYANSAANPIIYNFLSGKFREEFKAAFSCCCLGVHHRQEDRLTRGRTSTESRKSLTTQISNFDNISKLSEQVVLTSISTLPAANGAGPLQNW

As for `C[C@H]1[C@H](Oc2ncc(C(F)(F)F)cn2)CCCN1C(=O)c1ccccc1-c1ncc(F)cn1` [Example 165, (2-(5-fluoropyrimidin-2-yl)phenyl)((2S,3R)-2-methyl-3-((5-(trifluoromethyl)pyrimidin-2-yl)oxy)piperidin-1-yl)methanone], the Ki in experiment [1] came to 77 nM; in experiment [2], 59 nM; in experiment [3], 4400 nM.

For `C[C@H]1[C@H](Oc2cnc(C(F)(F)F)cn2)CCCN1C(=O)c1ccccc1-c1ncc(F)cn1` [Example 166, (2-(5-fluoropyrimidin-2-yl)phenyl)((2S,3R)-2-methyl-3-((5-(trifluoromethyl)pyrazin-2-yl)oxy)piperidin-1-yl)methanone], the Ki in experiment [1] was found to be 124 nM; in experiment [2], 97 nM; in experiment [3], 3100 nM.

As for `Cc1cccc(C(=O)N2CCC[C@@H](Oc3ncc(C(F)(F)F)cn3)[C@@H]2C)c1-c1ncccn1` [Example 167, (3-methyl-2-(pyrimidin-2-yl)phenyl)((2S,3R)-2-methyl-3-((5-(trifluoromethyl)pyrimidin-2-yl)oxy)piperidin-1-yl)methanone], the Ki in experiment [1] was found to be 28 nM; in experiment [2], 30 nM; in experiment [3], 1800 nM.

With `C[C@H]1[C@H](Oc2cnc(C(F)(F)F)cn2)CCCN1C(=O)c1ccccc1-c1ncccn1` [Example 168, ((2S,3R)-2-methyl-3-((5-(trifluoromethyl)pyrazin-2-yl)oxy)piperidin-1-yl)(2-(pyrimidin-2-yl)phenyl)methanone], the Ki in experiment [1] amounted to 25 nM; in experiment [2], 29 nM; in experiment [3], 951 nM.

For `C[C@H]1[C@H](Oc2ncc(C(F)(F)F)cn2)CCCN1C(=O)c1ccccc1-c1ncccn1` [Example 169, ((2S,3R)-2-methyl-3-((5-(trifluoromethyl)pyrimidin-2-yl)oxy)piperidin-1-yl)(2-(pyrimidin-2-yl)phenyl)methanone], the Ki in experiment [1] was 23 nM; in experiment [2] it was 32 nM; in experiment [3], 1200 nM.

Regarding `Cc1cccc(C(=O)N2CCC[C@@H](Oc3ncc(C(F)(F)F)cn3)[C@@H]2C)c1-c1ncc(F)cn1` [Example 170, (2-(5-fluoropyrimidin-2-yl)-3-methylphenyl)((2S,3R)-2-methyl-3-((5-(trifluoromethyl)pyrimidin-2-yl)oxy)piperidin-1-yl)methanone], the Ki in experiment [1] was determined as 49 nM; in experiment [2] it was 48 nM; in experiment [3], 2800 nM.

Consider `Cc1cccc(C(=O)N2CCC[C@@H](Oc3cnc(C(F)(F)F)cn3)[C@@H]2C)c1-c1ncccn1` [Example 171, (3-methyl-2-(pyrimidin-2-yl)phenyl)((2S,3R)-2-methyl-3-((5-(trifluoromethyl)pyrazin-2-yl)oxy)piperidin-1-yl)methanone], for which the Ki in experiment [1] stood at 29 nM; in experiment [2], 34 nM; in experiment [3], 1100 nM.

`C[C@H]1[C@H](Oc2ncc(C(F)(F)F)cn2)CCCN1C(=O)c1cc(F)ccc1-c1ncco1` [Example 175, (5-fluoro-2-(oxazol-2-yl)phenyl)((2S,3R)-2-methyl-3-((5-(trifluoromethyl)pyrimidin-2-yl)oxy)piperidin-1-yl)methanone]: the Ki in experiment [1] came out at 188 nM; in experiment [2], 124 nM; in experiment [3], 4400 nM.

On to `Cc1cnc(-n2nccn2)c(C(=O)N2CCC[C@@H](Oc3cnc(C(F)(F)F)cn3)[C@@H]2C)c1` [Example 177, (5-methyl-2-(2H-1,2,3-triazol-2-yl)pyridin-3-yl)((2S,3R)-2-methyl-3-((5-(trifluoromethyl)pyrazin-2-yl)oxy)piperidin-1-yl)methanone], for which the values for the Ki in experiment [1], in experiment [2] and in experiment [3] were 166 nM, 238 nM and more than 10000 nM, respectively.

For the molecule `C[C@H]1[C@H](Oc2cnc(C(F)(F)F)cn2)CCCN1C(=O)c1cc(F)ccc1-c1ncco1` [Example 179, (5-fluoro-2-(oxazol-2-yl)phenyl)((2S,3R)-2-methyl-3-((5-(trifluoromethyl)pyrazin-2-yl)oxy)piperidin-1-yl)methanone], the figures for the Ki in experiment [1], in experiment [2] and in experiment [3] were 68 nM, 100 nM and 1900 nM, respectively.

Take `Cc1cnc(-c2ncccn2)c(C(=O)N2CCC[C@@H](Oc3ccc(C(F)(F)F)cn3)[C@@H]2C)c1` [Example 211, (5-methyl-2-(pyrimidin-2-yl)pyridin-3-yl)((2S,3R)-2-methyl-3-((5-(trifluoromethyl)pyridin-2-yl)oxy)piperidin-1-yl)methanone]: the Ki in experiment [1] was 124 nM; in experiment [2], 120 nM; in experiment [3] it was more than 10000 nM.

Consider `C[C@H]1[C@H](Oc2ccc(C(F)(F)F)cn2)CCCN1C(=O)c1c(F)cccc1-c1ncccn1` [Example 212, (2-fluoro-6-(pyrimidin-2-yl)phenyl)((2S,3R)-2-methyl-3-((5-(trifluoromethyl)pyridin-2-yl)oxy)piperidin-1-yl)methanone], for which the figures for the Ki in experiment [1], in experiment [2] and in experiment [3] were 132 nM, 45 nM and 915 nM, respectively.

With `Cc1ccc(-c2ncccn2)c(C(=O)N2CCC[C@@H](Oc3ccc(C(F)(F)F)cn3)[C@@H]2C)n1` [Example 213, ((2S,3R)-2-methyl-3-((5-(trifluoromethyl)pyridin-2-yl)oxy)piperidin-1-yl)(6-methyl-3-(pyrimidin-2-yl)pyridin-2-yl)methanone], the figures for the Ki in experiment [1], in experiment [2] and in experiment [3] were 68 nM, 23 nM and 217 nM, respectively.

`Cc1cnc(-n2nccn2)c(C(=O)N2CCC[C@@H](Oc3ccc(Cl)cn3)[C@@H]2C)c1` [Example 214, ((2S,3R)-3-((5-chloropyridin-2-yl)oxy)-2-methylpiperidin-1-yl)(5-methyl-2-(2H-1,2,3-triazol-2-yl)pyridin-3-yl)methanone]: the results for the Ki in experiment [1], in experiment [2] and in experiment [3] were 78 nM, 38 nM and 5400 nM, respectively.

As to `Cc1ccc(-n2nccn2)c(C(=O)N2CCC[C@@H](Oc3ccc(Cl)cn3)[C@@H]2C)n1` [Example 215, ((2S,3R)-3-((5-chloropyridin-2-yl)oxy)-2-methylpiperidin-1-yl)(6-methyl-3-(2H-1,2,3-triazol-2-yl)pyridin-2-yl)methanone], the Ki came to 35 nM in experiment [1], 12 nM in experiment [2] and 374 nM in experiment [3].

Take `Cc1cnc(C(=O)N2CCC[C@@H](Oc3ccc(Cl)cn3)[C@@H]2C)c(-c2ncccn2)c1` [Example 216, ((2S,3R)-3-((5-chloropyridin-2-yl)oxy)-2-methylpiperidin-1-yl)(5-methyl-3-(pyrimidin-2-yl)pyridin-2-yl)methanone]: the results for the Ki in experiment [1], in experiment [2] and in experiment [3] were 89 nM, 52 nM and 8200 nM, respectively.

With `Cc1cnc(-c2ncccn2)c(C(=O)N2CCC[C@@H](Oc3ccc(Cl)cn3)[C@@H]2C)c1` [Example 217, ((2S,3R)-3-((5-chloropyridin-2-yl)oxy)-2-methylpiperidin-1-yl)(5-methyl-2-(pyrimidin-2-yl)pyridin-3-yl)methanone], the Ki in experiment [1] was 154 nM; in experiment [2], 177 nM; in experiment [3] it was 8900 nM.

Take `C[C@H]1[C@H](Oc2ccc(Cl)cn2)CCCN1C(=O)c1ncccc1-c1ncccn1` [Example 218, ((2S,3R)-3-((5-chloropyridin-2-yl)oxy)-2-methylpiperidin-1-yl)(3-(pyrimidin-2-yl)pyridin-2-yl)methanone]: the Ki in experiment [1] is 29 nM; in experiment [2], 26 nM; in experiment [3] it was 495 nM.

On to `CCOc1ccc(C)nc1C(=O)N1CCC[C@@H](Oc2ccc(C(F)(F)F)cn2)[C@@H]1C` [Example 219, (3-ethoxy-6-methylpyridin-2-yl)((2S,3R)-2-methyl-3-((5-(trifluoromethyl)pyridin-2-yl)oxy)piperidin-1-yl)methanone], for which the Ki came out at 55 nM in experiment [1], 51 nM in experiment [2] and 1300 nM in experiment [3].

On to `Cc1cccc(C(=O)N2CCC[C@@H](Oc3ncc(C(F)(F)F)cc3F)[C@@H]2C)c1-c1ncccn1` [Example 220, ((2S,3R)-3-((3-fluoro-5-(trifluoromethyl)pyridin-2-yl)oxy)-2-methylpiperidin-1-yl)(3-methyl-2-(pyrimidin-2-yl)phenyl)methanone], for which the Ki in experiment [1] turned out to be 25 nM; in experiment [2] it was 23 nM; in experiment [3], 393 nM.

As to `C[C@H]1[C@H](Oc2ncc(C(F)(F)F)cc2F)CCCN1C(=O)c1cc(F)ccc1-c1ncccn1` [Example 221, (5-fluoro-2-(pyrimidin-2-yl)phenyl)((2S,3R)-3-((3-fluoro-5-(trifluoromethyl)pyridin-2-yl)oxy)-2-methylpiperidin-1-yl)methanone], the Ki in experiment [1] is 44 nM; in experiment [2], 32 nM; in experiment [3], 533 nM.

For the molecule `C[C@H]1[C@H](Oc2ncc(C(F)(F)F)cc2F)CCCN1C(=O)c1ccc(F)cc1-c1ncccn1` [Example 222, (4-fluoro-2-(pyrimidin-2-yl)phenyl)((2S,3R)-3-((3-fluoro-5-(trifluoromethyl)pyridin-2-yl)oxy)-2-methylpiperidin-1-yl)methanone], the Ki in experiment [1] stood at 91 nM; in experiment [2], 55 nM; in experiment [3], 1300 nM.

Regarding `Cc1ccc(-c2ncccn2)c(C(=O)N2CCC[C@@H](Oc3ncc(C(F)(F)F)cc3F)[C@@H]2C)n1` [Example 223, ((2S,3R)-3-((3-fluoro-5-(trifluoromethyl)pyridin-2-yl)oxy)-2-methylpiperidin-1-yl)(6-methyl-3-(pyrimidin-2-yl)pyridin-2-yl)methanone], the Ki is 45 nM in experiment [1], 35 nM in experiment [2] and 370 nM in experiment [3].

(Values after patent US9611251B2, “Substituted piperidine compounds and their use as orexin receptor modulators” (Janssen Pharmaceutica NV, priority 2013, dated 2017).)
